One test relates to Bacillus subtilis. Put plainly: Antibacterial activity against Bacillus subtilis ATCC 451 after 24 hrs by twofold serial dilution method. In kind it is functional. To be noted: for MIC: Bacillus subtilis, ATCC 451, 24 h.
A further test concerns Aspergillus niger. Briefly: Antifungal activity against Aspergillus niger after 72 to 96 hrs by twofold serial dilution method. In kind it is functional. The conditions noted are these: for MIC: Aspergillus niger.
A further test concerns Pseudomonas aeruginosa. Put plainly: Antibacterial activity against Pseudomonas aeruginosa ATCC 10145 after 24 hrs by twofold serial dilution method. The test is classed as functional. To be noted: for MIC: Pseudomonas aeruginosa, ATCC 10145, 24 h.
A further test deals with Klebsiella pneumoniae. Put plainly: Antibacterial activity against Klebsiella pneumoniae ATCC 15490 after 24 hrs by twofold serial dilution method. To be noted: for MIC: Klebsiella pneumoniae, ATCC 15490, 24 h. The test is classed as functional.
The test system of the next test is Staphylococcus aureus. Put plainly: Antibacterial activity against Staphylococcus aureus ATCC 25825 after 24 hrs by twofold serial dilution method. The test is classed as functional. To be noted: for MIC: Staphylococcus aureus, ATCC 25825, 24 h.
The next test has as its system Salmonella typhi. Briefly: Antibacterial activity against Salmonella typhi ATCC 24915 after 24 hrs by twofold serial dilution method. In kind it is functional, Salmonella enterica subsp. enterica serovar Typhi. To be noted: for MIC: Salmonella enterica, ATCC 24915, 24 h.
Another test concerns Escherichia coli. Put plainly: Antibacterial activity against Escherichia coli ATCC 25835 after 24 hrs by twofold serial dilution method. The test is classed as functional. The conditions noted are these: for MIC: Escherichia coli, ATCC 25835, 24 h.
Another test deals with Candida albicans. Briefly: Antifungal activity against Candida albicans after 24 hrs by twofold serial dilution method. In kind it is functional. To be noted: for MIC: Candida albicans, 24 h.
Another test deals with Cryptococcus neoformans. Put plainly: Antifungal activity against Cryptococcus neoformans after 72 to 96 hrs by twofold serial dilution method. The test is classed as functional. To be noted: for MIC: Cryptococcus neoformans.

By MIC is commonly meant the least concentration at which growth counts as inhibited.

Each structure is given as a SMILES string. Converted amounts (≈) assume the structure as drawn.

Consider `C[C@@H]1/C(=N\NC(=S)Nc2ccccc2)[C@@H](C)[C@H](c2ccc(Cl)cc2)O[C@@H]1c1ccc(Cl)cc1`, for which the “-logMIC” value amounted to 4.602 in the test on Bacillus subtilis; 4.301 in the test with Aspergillus niger; 5.204 in the test on Pseudomonas aeruginosa; 4.903 with Klebsiella pneumoniae; 4.602 in the test with Staphylococcus aureus; 4 with Escherichia coli. In addition, the “-logMIC” value in the test with Candida albicans is 4.903; with Cryptococcus neoformans, 5.204. For the same compound, the MIC against Bacillus subtilis is 25 µg/mL (≈ 50.2 µM); in the test on Aspergillus niger it was 50 µg/mL (≈ 100 µM); with Pseudomonas aeruginosa, 6.25 µg/mL (≈ 12.5 µM); against Klebsiella pneumoniae, 12.5 µg/mL (≈ 25.1 µM); against Staphylococcus aureus it was 25 µg/mL (≈ 50.2 µM); against Salmonella typhi, 25 µg/mL (≈ 50.2 µM). Moreover, the MIC with Escherichia coli amounted to 100 µg/mL (≈ 201 µM); against Candida albicans, 12.5 µg/mL (≈ 25.1 µM); against Cryptococcus neoformans, 6.25 µg/mL (≈ 12.5 µM).
In the case of `C[C@@H]1/C(=N\NC(=S)Nc2ccccc2)[C@@H](C)[C@H](c2ccc(Br)cc2)O[C@@H]1c1ccc(Br)cc1`, the “-logMIC” value is given as 4.602 with Bacillus subtilis; 4.602 in the test on Aspergillus niger; 5.204 with Pseudomonas aeruginosa; 4.602 in the test with Klebsiella pneumoniae; 4.602 with Staphylococcus aureus; 4 in the test on Escherichia coli. Also, the figures for the “-logMIC” value in the test with Candida albicans and in the test with Cryptococcus neoformans were 5.204 and 4.903, respectively. Besides, the MIC stood at 25 µg/mL (≈ 42.6 µM) against Bacillus subtilis; 25 µg/mL (≈ 42.6 µM) in the test on Aspergillus niger; 6.25 µg/mL (≈ 10.6 µM) against Pseudomonas aeruginosa; 25 µg/mL (≈ 42.6 µM) against Klebsiella pneumoniae; 25 µg/mL (≈ 42.6 µM) against Staphylococcus aureus; 12.5 µg/mL (≈ 21.3 µM) against Salmonella typhi. Besides, the results for the MIC against Escherichia coli, against Candida albicans and against Cryptococcus neoformans were 100 µg/mL (≈ 170 µM), 6.25 µg/mL (≈ 10.6 µM) and 12.5 µg/mL (≈ 21.3 µM), respectively.
For the compound `COc1ccc([C@H]2O[C@@H](c3ccc(OC)cc3)[C@H](C)/C(=N/NC(=S)Nc3ccccc3)[C@H]2C)cc1`, the “-logMIC” value with Bacillus subtilis was 4.903; in the test on Aspergillus niger, 4.602; in the test on Pseudomonas aeruginosa, 4.602; with Klebsiella pneumoniae, 4.602; in the test on Staphylococcus aureus, 4.903; in the test on Salmonella typhi, 4. Also, the “-logMIC” value is recorded as 4.602 with Escherichia coli, 5.204 with Candida albicans and 3.698 in the test with Cryptococcus neoformans. Also, the MIC against Bacillus subtilis was found to be 12.5 µg/mL (≈ 25.5 µM); with Aspergillus niger it was 25 µg/mL (≈ 51.1 µM); with Pseudomonas aeruginosa it was 25 µg/mL (≈ 51.1 µM); in the test on Klebsiella pneumoniae, 25 µg/mL (≈ 51.1 µM); against Staphylococcus aureus, 12.5 µg/mL (≈ 25.5 µM); against Salmonella typhi it was 100 µg/mL (≈ 204 µM). The MIC against Escherichia coli worked out at 25 µg/mL (≈ 51.1 µM); against Candida albicans, 6.25 µg/mL (≈ 12.8 µM); against Cryptococcus neoformans it was 200 µg/mL (≈ 408 µM).
Consider `C[C@@H]1/C(=N\NC(=S)Nc2ccccc2)[C@@H](C)[C@H](c2ccccc2Cl)O[C@@H]1c1ccccc1Cl`, for which the “-logMIC” value in the test with Bacillus subtilis turned out to be 4.301; with Aspergillus niger, 3.698; in the test with Pseudomonas aeruginosa it was 4.301; in the test on Klebsiella pneumoniae it was 4.903; in the test on Staphylococcus aureus, 4.301; in the test with Escherichia coli it was 4.602. The “-logMIC” value was found to be 4.301 in the test with Candida albicans and 4.602 in the test on Cryptococcus neoformans. The MIC was found to be 50 µg/mL (≈ 100 µM) against Bacillus subtilis; 200 µg/mL (≈ 401 µM) against Aspergillus niger; 50 µg/mL (≈ 100 µM) in the test on Pseudomonas aeruginosa; 12.5 µg/mL (≈ 25.1 µM) against Klebsiella pneumoniae; 50 µg/mL (≈ 100 µM) against Staphylococcus aureus; 25 µg/mL (≈ 50.2 µM) against Salmonella typhi. For the same compound, the minimal inhibitory concentration (MIC) is 25 µg/mL (≈ 50.2 µM) against Escherichia coli, 50 µg/mL (≈ 100 µM) against Candida albicans and 25 µg/mL (≈ 50.2 µM) against Cryptococcus neoformans.
As to `C[C@@H]1/C(=N\NC(=S)Nc2ccccc2)[C@@H](C)[C@H](c2cccc(Cl)c2)O[C@@H]1c1cccc(Cl)c1`, the “-logMIC” value in the test on Bacillus subtilis came out at 4.602; in the test on Aspergillus niger it was 4; in the test with Pseudomonas aeruginosa it was 4.602; in the test with Klebsiella pneumoniae, 4.903; in the test with Staphylococcus aureus it was 4.301; in the test on Escherichia coli, 4. The “-logMIC” value with Candida albicans and in the test with Cryptococcus neoformans was 4.602 in each case. In addition, the MIC with Bacillus subtilis was 25 µg/mL (≈ 50.2 µM); with Aspergillus niger, 100 µg/mL (≈ 201 µM); against Pseudomonas aeruginosa, 25 µg/mL (≈ 50.2 µM); against Klebsiella pneumoniae it was 12.5 µg/mL (≈ 25.1 µM); against Staphylococcus aureus it was 50 µg/mL (≈ 100 µM); with Salmonella typhi, 12.5 µg/mL (≈ 25.1 µM). Also, the values for the minimum inhibitory concentration (MIC) with Escherichia coli, against Candida albicans and against Cryptococcus neoformans were 100 µg/mL (≈ 201 µM), 25 µg/mL (≈ 50.2 µM) and 25 µg/mL (≈ 50.2 µM), respectively.
On to `COc1cccc([C@H]2O[C@@H](c3cccc(OC)c3)[C@H](C)/C(=N/NC(=S)Nc3ccccc3)[C@H]2C)c1`, for which the “-logMIC” value with Bacillus subtilis is given as 4.903; in the test on Aspergillus niger it was 4; with Pseudomonas aeruginosa, 3.698; in the test with Klebsiella pneumoniae, 4; in the test on Staphylococcus aureus, 4.903; in the test on Escherichia coli, 4.301. Further, the figures for the “-logMIC” value in the test on Candida albicans and in the test with Cryptococcus neoformans were 4.602 and 4, respectively. The MIC worked out at 12.5 µg/mL (≈ 25.5 µM) with Bacillus subtilis; 100 µg/mL (≈ 204 µM) against Aspergillus niger; 200 µg/mL (≈ 408 µM) against Pseudomonas aeruginosa; 100 µg/mL (≈ 204 µM) in the test on Klebsiella pneumoniae; 12.5 µg/mL (≈ 25.5 µM) with Staphylococcus aureus; 50 µg/mL (≈ 102 µM) against Salmonella typhi. In addition, the MIC was determined as 50 µg/mL (≈ 102 µM) in the test on Escherichia coli, 25 µg/mL (≈ 51.1 µM) with Candida albicans and 100 µg/mL (≈ 204 µM) with Cryptococcus neoformans.

The values above are taken from ChEMBL document CHEMBL1759834, “Synthesis, stereochemistry, antimicrobial evaluation and QSAR studies of 2,6-diaryltetrahydropyran-4-one thiosemicarbazones” (2011).
